These results are taken from BindingDB's records for doi:10.1021/np010194b (Kyungpook National University, 2002).

The IC50 is the midpoint of a concentration-inhibition curve. Higher therefore signals lower potency.

This experiment has as its target Prolyl endopeptidase (Flavobacterium meningosepticum). Briefly: Inhibition of Flavobacterium meningosepticum PEP.

Where a SMILES comes first, the peptide text is derived from it. Bridges are numbered along the chain shown (N, C = ends).

Consider `CC[C@H](C)[C@H](NC(=O)[C@H](Cc1ccccc1)NC(=O)[C@@H](NC(=O)[C@H](Cc1cnc[nH]1)NC(=O)CNC(=O)CNC(=O)[C@H](Cc1ccccc1)NC(=O)[C@H](CC(C)C)NC(=O)[C@@H]1CC(=O)NCC(=O)N[C@@H](Cc2ccc(O)cc2)C(=O)N2CCC[C@H]2C(=O)N[C@@H](Cc2c[nH]c3ccccc23)C(=O)N[C@@H](Cc2c[nH]c3ccccc23)C(=O)N[C@@H](CC(=O)O)C(=O)N[C@@H](Cc2ccc(O)cc2)C(=O)N[C@@H](CCCNC(=N)N)C(=O)N1)[C@@H](C)O)C(=O)N[C@@H](CO)C(=O)N1CCC[C@H]1C(=O)O` [propeptin] (GYPWWDYRDLFGGHTFISP-OH; lactam N-9), for which the IC50 stood at 1.1 µM.
